Patent US11993587B2, “Substituted pyrazolo-pyrazines and their use as GluN2B receptor modulators” (JANSSEN PHARMACEUTICA NV, priority 2019, dated 2024)

target: T1, human GluN1/GluN2B NMDA receptors (Homo sapiens, UniProt Q13224); assay: Cell-based calcium flux (FLIPR) assay on cloned human NR1/NR2B ion channels expressed in mammalian cells; conditions: standard assay, glutamate ~EC40 plus 10 μM glycine, cells expressing human GluN1/GluN2B
T1 construct: expressed in transfected cells
Method: Effects of Test Articles on Cloned Human NR1/NR2B Ion Channels Expressed in Mammalian Cells
NMDA receptors are ion channels that are highly permeable to Ca^2+ ions, rendering it possible to monitor NMDA receptor function using cell-based calcium flux assay. In this assay, co-agonists glutamate and glycine are added to cells heterologously expressing human GluN1/GluN2B NMDA receptors to initiate cellular Ca^2+ influx. The time course of the changes in intracellular calcium is measured using a fluorescent dye and a FLIPR (Fluorometric Imaging Plate Reader) device.
Twenty four hours before measurements, the expression of the NMDA receptors in the stable cell line is induced with Tet-On inducible system in the presence of a non-selective NMDA receptor blocker. […] After 1 h incubation at the room temperature, the dye is washed away with the assay buffer (137 mM NaCl (standard assay) or 150 mM (HTS assay), 4 mM KCl (standard assay) or 3 mM (HTS assay), 2 mM CaCl2), 0.01 mM EDTA, 10 mM HEPES and 5 mM D-glucose; pH 7.4) In the FLIPR TETRA reader, various concentrations of the test compounds are added to the cells for 5 min while fluorescence is monitored to detect potential agonist activity. […] The fluorescent signal in the presence of test compounds is quantified and normalized to the signal defined by the appropriate control wells.

T1 sequence (Q13224 27-1484, other chains not shown): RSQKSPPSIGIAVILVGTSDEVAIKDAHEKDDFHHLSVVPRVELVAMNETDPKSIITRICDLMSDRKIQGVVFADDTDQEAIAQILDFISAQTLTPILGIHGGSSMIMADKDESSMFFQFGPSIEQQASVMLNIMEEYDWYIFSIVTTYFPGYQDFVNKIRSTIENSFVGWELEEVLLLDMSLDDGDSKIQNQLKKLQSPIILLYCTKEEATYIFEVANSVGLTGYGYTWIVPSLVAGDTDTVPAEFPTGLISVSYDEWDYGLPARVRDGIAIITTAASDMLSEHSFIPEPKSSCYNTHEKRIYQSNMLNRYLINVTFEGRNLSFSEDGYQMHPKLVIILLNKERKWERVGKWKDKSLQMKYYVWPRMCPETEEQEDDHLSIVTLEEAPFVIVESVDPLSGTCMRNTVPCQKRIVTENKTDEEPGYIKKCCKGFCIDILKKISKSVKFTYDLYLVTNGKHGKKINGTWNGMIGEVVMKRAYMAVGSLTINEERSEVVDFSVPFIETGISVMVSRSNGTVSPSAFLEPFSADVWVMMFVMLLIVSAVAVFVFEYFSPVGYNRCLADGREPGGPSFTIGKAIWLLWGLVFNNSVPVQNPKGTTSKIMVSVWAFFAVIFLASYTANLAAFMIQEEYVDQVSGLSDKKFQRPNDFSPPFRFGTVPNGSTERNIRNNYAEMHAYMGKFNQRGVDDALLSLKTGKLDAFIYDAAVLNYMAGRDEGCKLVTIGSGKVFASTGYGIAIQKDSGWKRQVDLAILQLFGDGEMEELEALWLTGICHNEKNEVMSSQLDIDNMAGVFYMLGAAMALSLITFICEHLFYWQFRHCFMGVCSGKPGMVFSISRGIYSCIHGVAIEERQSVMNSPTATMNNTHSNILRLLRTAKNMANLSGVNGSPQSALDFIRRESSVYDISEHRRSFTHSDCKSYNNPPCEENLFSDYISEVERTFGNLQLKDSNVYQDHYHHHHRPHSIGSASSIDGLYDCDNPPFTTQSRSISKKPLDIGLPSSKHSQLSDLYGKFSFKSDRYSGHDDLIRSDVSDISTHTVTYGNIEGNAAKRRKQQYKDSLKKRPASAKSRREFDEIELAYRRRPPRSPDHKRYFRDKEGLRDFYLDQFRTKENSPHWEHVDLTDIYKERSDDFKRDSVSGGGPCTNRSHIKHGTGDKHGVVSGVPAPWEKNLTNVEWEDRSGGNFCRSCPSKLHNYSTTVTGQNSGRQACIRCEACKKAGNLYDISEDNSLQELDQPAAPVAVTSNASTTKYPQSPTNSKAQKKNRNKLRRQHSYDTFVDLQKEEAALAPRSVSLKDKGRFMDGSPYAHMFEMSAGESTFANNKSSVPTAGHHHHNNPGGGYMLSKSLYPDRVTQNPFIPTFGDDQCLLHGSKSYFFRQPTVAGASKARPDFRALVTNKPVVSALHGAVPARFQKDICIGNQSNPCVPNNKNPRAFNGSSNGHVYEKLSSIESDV

Molecule | IC50
2-[6-(4-Fluoro-3-methyl-phenyl)pyrazolo[3,4-b]pyrazin-1-yl]-N,N-dimethyl-acetamide [Example 7] | 117 nM

test system: not listed separately; assay: Liver microsomal stability (extraction ratio); format: in vitro ADME; conditions: test compound 1 μM, 0.5 mg/mL liver microsomes, NADPH, 37° C.; species not stated (method: mouse, rat, and human)
Method: Protocol for Liver Microsomal Stability (Extraction Ratio)
Liver Microsomal Stability. Microsomal stability studies (Chrovian et al, “1H-Pyrrolo[3,2-b]pyridine GluN2B-Selective Negative Allosteric Modulators”. ACS Med Chem Lett. 2019 Jan. 10; 10(3):261-266) were conducted on a Biomek® FX Robotic Liquid Handling Workstation (Beckman Coulter, Brea, CA), which consists of a 96-channel pipette head, a 12-position workstation deck, and a plate incubator. Test compounds (1 μM) were spiked in a reaction mix consisting of 100 mM potassium phosphate buffer (pH 7.4), 3 mM MgCl2, and 0.5 mg/mL liver microsomes from mouse, rat, and human (BD Gentest). The reaction was brought to 37° C. and initiated by adding NADPH to a final concentration of 1 mM. After mixing on the plate deck, 50 μL aliquots were excised from the reaction plate at 0, 5, 10, 20, 40, and 60 min and quenched with four volumes of acetonitrile spiked with […] of the internal standard phenytoin. Quenched plates were centrifuged at 5700 rpm for 10 min at 4° C., and supernatant was diluted 1:3 in water before LC/MS/MS analysis. The compound half-lives were derived from plots of the ln of percent remaining compound over time to determine the intrinsic clearance. The predicted hepatic clearance was derived from the intrinsic clearance value using equations from the well-stirred model (Current Drug Metabolism, 2008, 9, 940-951), where no correction was made plasma protein binding and the blood to plasma concentration ratio was assumed to be one. The extraction ratio (ER) was calculated by dividing the predicted hepatic clearance by species blood flow (Q), where Q is 90, 55, and 21.7 mL/min/kg for mouse, rat and human, respectively

Molecule | Extraction Ratio @ 1 μM
CN(C)C(=O)Cn1ncc2ncc(-c3ccc(F)c(C(F)F)c3)nc21 [Example 10, 2-[6-[3-(Difluoromethyl)-4-fluoro-phenyl]pyrazolo[3,4-b]pyrazin-1-yl]-N,N-dimethyl-acetamide] | 0.41
CN(C)C(=O)Cn1ncc2ncc(-c3ccc(Cl)c(C(F)F)c3)nc21 [Example 12, 2-[6-[4-Chloro-3-(difluoromethyl)phenyl]pyrazolo[3,4-b]pyrazin-1-yl]-N,N-dimethyl-acetamide] | 0.54
O=C(Cn1nc(F)c2ncc(-c3ccc(F)c(C(F)F)c3)nc21)N1CCC1 [Example 25, 1-(Azetidin-1-yl)-2-[6-[3-(difluoromethyl)-4-fluoro-phenyl]-3-fluoro-pyrazolo[3,4-b]pyrazin-1-yl]ethanone] | 0.41
O=C(Cn1ncc2ncc(-c3ccc(F)c(OC(F)F)c3)nc21)N1CCC1 [Example 28, 1-(Azetidin-1-yl)-2-[6-[3-(difluoromethoxy)-4-fluoro-phenyl]pyrazolo[3,4-b]pyrazin-1-yl]ethanone] | 0.45
O=C(Cn1ncc2ncc(-c3ccc(F)c(OC(F)F)c3)nc21)N1CC(F)C1 [Example 37, 2-[6-[3-(Difluoromethoxy)-4-fluoro-phenyl]pyrazolo[3,4-b]pyrazin-1-yl]-1-(3-fluoroazetidin-1-yl)ethanone] | 0.46
